In US20260315398A1, “POLYPEPTIDE DRUG-CONTAINING SUSTAINED-RELEASE MICROSPHERE, PHARMACEUTICAL FORMULATION THEREOF, PREPARATION METHOD THEREFOR, AND USE THEREOF” (HUILLY PHARMA CO., LTD, priority 2023, published 2026):

Columns and labels:
[1] = high-concentration conditions; cited from earlier work
[2] = Effect Simulation of Aggregation Inhibitor, AFM observation of fibrils (FIG. 6); type: physicochemical; conditions: aggregation inhibitors sucrose (1) and phenol (2); inhibitor:drug:water 1:3:100, lyophilized, PBS pH 7.4, AFM
Experimental: In this embodiment, simulation experiments of anti-aggregation effects are carried out using liraglutide (Lira) and semaglutide (Sema) as examples, respectively, with specific methods as follows.
A mixture of aggregation inhibitors (aggregation inhibitor 1 is sucrose, and aggregation inhibitor 2 is phenol), a drug substance, and deionized water are mixed at a weight ratio of 1:3:100 and subsequently lyophilized. PBS (pH 7.4) is added dropwise to the lyophilized drug powder to simulate gradual infiltration of the drug inside THE microsphere. Afterwards, a portion of the drug is dissolved in the PBS, and an atomic force microscope (AFM) is used to observe whether fibrils are formed by the drug and to simulate structural changes of the drug during the slow permeation process inside the microsphere.

**Q.** Which “aggregation and drug polymer fiber formation” value [1] does the source give for `CCCCCCCCCCCCCCCC(=O)N[C@@H](CCC(=O)NCCCC[C@H](NC(=O)[C@H](C)NC(=O)[C@H](C)NC(=O)[C@H](CCC(N)=O)NC(=O)CNC(=O)[C@H](CCC(=O)O)NC(=O)[C@H](CC(C)C)NC(=O)[C@H](Cc1ccc(O)cc1)NC(=O)[C@H](CO)NC(=O)[C@H](CO)NC(=O)[C@@H](NC(=O)[C@H](CC(=O)O)NC(=O)[C@H](CO)NC(=O)[C@@H](NC(=O)[C@H](Cc1ccccc1)NC(=O)[C@@H](NC(=O)CNC(=O)[C@H](CCC(=O)O)NC(=O)[C@H](C)NC(=O)[C@@H](N)Cc1cnc[nH]1)[C@@H](C)O)[C@@H](C)O)C(C)C)C(=O)N[C@@H](CCC(=O)O)C(=O)N[C@@H](Cc1ccccc1)C(=O)N[C@H](C(=O)N[C@@H](C)C(=O)N[C@@H](Cc1c[nH]c2ccccc12)C(=O)N[C@@H](CC(C)C)C(=O)N[C@H](C(=O)N[C@@H](CCCNC(=N)N)C(=O)NCC(=O)N[C@@H](CCCNC(=N)N)C(=O)NCC(=O)O)C(C)C)[C@@H](C)CC)C(=O)O` [liraglutide] here?
**A.** prone to aggregation and even form drug polymer fibers

**Q.** And the “inhibition of fibrillation by aggregation inhibitor” value [2]?
**A.** significantly inhibit fibrillation
